Legend:
[1] = tested on: Rice Green Leaf Hoppers (Nephotettix virescens); test: Activity against rice green leaf hoppers (II.20); type: in vivo; conditions: at 300 ppm; after 72 hours; rice foliar spray
Description: II.20 Activity Against Rice Green Leaf Hoppers (Nephotettix virescens)
(§1) Leaf hopper adults used for bioassay are obtained from a colony maintained continuously under laboratory conditions. For testing purposes, the test compound is diluted in 300 ppm (wt compound:vol diluent) in a 1:1 mixture of acetone:water, plus 0.1% EL 620 surfactant.
Hopper activity is evaluated using the foliar spray technique. Potted rice plants (2-3 week old, Variety TN-1) are cleaned and dried prior to application. All plants are treated inside the fume hood using DeVilbiss atomizer at 25 psi with a spray volume of 5 ml/plant. To ensure uniform spray distribution, plants were placed in a rotating flat form inside the fume hood. Treated plants are then placed inside the holding room and allowed to dry for 2 hours. Each plant are caged using Mylar cages (4 inches diameter×19 inches in height) and inoculated with 10 adults hoppers. All test plants are held under continuous light and a temperature of about 28° C. for duration of the assay. Percent mortality is observed after 72 hours.

[2] = tested on: Flea Beetle (Phylotretta striolata); test: Activity against flea beetle (II.19); type: in vivo; conditions: at 300 ppm; after 3 days; leaf disc dip
Description: II.19 Activity Against Flea Beetle (Phylotretta striolata)
as §1, with “Flea bettle (Phylotretta striolata) adults” for “Leaf hopper adults”, “diluted to a concentration of” for “diluted in”, “(wt compound: vol” for “(wt compound:vol”
Activity of each compound is evaluated using a […]. Glass petri dishes (60×15 mm) lined with moist filter paper serves as test arenas. All leaf discs are dipped into treatment solution for approximately 3 seconds and allowed to dry for 2 hours. Each treated leaf disc is placed into individual petri dishes and inoculated with 10 adult beetles. Petri dishes are then covered with lids. All test arenas are held under continuous light and a temperature of about 28° C. for duration of the assay. After 3 days, percent mortality is observed.

[3] = tested on: Green Peach Aphid (Myzus persicae); conditions: in vivo
Source text: II.2 Activity Against Green Peach Aphid (Myzus persicae)
The active compounds were formulated in 50:50 acetone:water and 100 ppm Kinetic™ surfactant.
Pepper plants in the 2nd leaf-pair stage (variety California Wonder) were infested with approximately 40 laboratory-reared aphids by placing infested leaf sections on top of the test plants. The leaf sections were removed after 24 hr. The leaves of the intact plants were dipped into gradient solutions of the test compound and allowed to dry. Test plants were maintained under fluorescent light (24 hour photoperiod) at about 25° C. and 20-40% relative humidity. Aphid mortality on the treated plants, relative to mortality on check plants, was determined after 5 days.

[4] = tested on: Brown Planthopper (nilaparvata lugens); test: Activity against brown planthopper (II.7); type: in vivo; conditions: for mortality [%] at 300 ppm: brown plant hopper (II.7)
Description: II.7 Activity Against Brown Planthopper (nilaparvata lugens)
The active compounds were formulated as a 20:80 acetone:water solution. Surfactant (Alkamuls EL 620) was added at the rate of 0.1% (vol/vol).
Potted rice plants of 3-4 weeks of age are sprayed with 10 ml of the test solution using air driven hand atomizer (Devillbis atomizer) at 1.7 bar. The treated plants are allowed to dry for about 1 hour and covered with Mylar cages. The plants are inoculated with 10 adults of the specie (5 male and 5 females) and kept at 25-27° C. and 50-60% humidity for 3 days. Mortality is assed after 24, 48 and 72 hours after treatment. Dead insects are usually found in the water surface. Each treatment is replicated once.

[5] = tested on: Diamond Back Moth (plutella xylostella); conditions: in vivo
Description: II.5 Activity Against Diamond Back Moth (plutella xylostella)
The active compounds were formulated in 50:50 acetone:water and 0.1% (vol/vol) Alkamuls EL 620 surfactant. A 6 cm leaf disk of cabbage leaves was dipped in the test solution for 3 seconds and allowed to air dry in a Petri plate lined with moist filter paper. The leaf disk was inoculated with 10 third instar larvae and kept at 25-27° C. and 50-60% humidity for 3 days. Mortality was assessed after 72 h of treatment.

Compound	mortality in comparison with untreated controls [1]	mortality in comparison with untreated controls [2]	mortality [%] at 100 ppm [3]	mortality [%] at 300 ppm [3]	mortality in comparison with untreated controls ([4]; at 300 ppm, rice plants sprayed, up to 72 hours)	mortality [%] at 300 ppm [4]	mortality [%] at 10 ppm [3]	mortality [%] at 300 ppm [5]
O=S(=O)(NCc1ccnc2ccccc12)c1ccc(-c2ccc(C(F)(F)F)cc2Cl)cc1F [Compound B85]	at least 75%	at least 75%						
O=S(=O)(NCc1ccnc2ccccc12)c1ccc(-c2ccc(OC(F)(F)F)cc2)c(F)c1 [Compound B14]			90%	90%				
O=S(=O)(NCc1ccnc2ccccc12)c1ccc(-c2ccc(C(F)(F)F)cc2)c(C(F)(F)F)c1 [Compound B16]					at least 75%	100%		
O=S(=O)(NCc1ccnc2ccccc12)c1ccc(-c2ccc(C(F)(F)F)cc2)c(Cl)c1 [Compound B24]			90%	100%			90%	100%
O=S(=O)(NCc1ccnc2ccccc12)c1ccc(-c2ccc(C(F)(F)F)cc2)cc1 [Compound C2, reference compound]			60%	100%		0%	0%	0%
O=S(=O)(NCc1ccnc2ccccc12)c1ccc(-c2ccc(OC(F)(F)F)cc2)cc1 [Compound C1, reference compound]			0%	60%				

Source: US20090280982A1, “Quinolinylmethyl Compounds” (BASF SE, priority 2006, published 2009)
